# Source: US20240327415A1, “Multicomponent Complexes, Including Salts, Crystalline Forms, and Hydrates and Solvates of ENT1 Inhibitors” (iTeos Belgium SA, priority 2023, published 2024)
# Where a name gives a salt, the structure may show the parent alone.
# Experiment: solid form screen of Compound 1 di(hydrogen sulfate), XRPD damp and dried (Example 1)
# Format: physicochemical
# Protocol: Example 1—Solid Form Screen of Compound 1 Di(Hydrogen Sulfate): Amorphous Compound 1 di(hydrogen sulfate) (made in accordance with Example 7) was prepared and then subject to various crystallization techniques—temperature cycling, evaporation, crash cooling, solvent drop grinding, anti-solvent addition—each of which is described in more detail below. In addition, a reactive crystallization experiment was also conducted on Compound 1, which is a free base.
# Temperature Cycling: Approximately 20 mg of Amorphous Compound 1 di(hydrogen sulfate) was added to 24×1.5 mL screw cap vials. Into each vial, the appropriate solvent system was added in 50 μL aliquots in an attempt to form slurries at 40° C. When the addition was completed, the samples were temperature-cycled between 40° C. and 5° C., using 0.1° C./min ramp and 1 hr hold between steps. After about 24 hours of cycling, anti-solvent addition at 40° C. was carried out on samples that were clear solutions. Temperature cycling was continued for all samples for a total of 48 hours. After 48 hours of cycling, any solids present in the samples were isolated via centrifugation and analyzed damp by XRPD to assess the polymorphic form.
# Evaporation: Solutions of Amorphous Compound 1 di(hydrogen sulfate) were prepared in different solvent systems. […] The solutions were then left open to allow the solvents to evaporate at ambient. Solids observed post-evaporation were analyzed by XRPD.
# Crash Cooling: Solutions of Amorphous Compound 1 di(hydrogen sulfate) were prepared in different solvent systems. […] The solutions were placed in a refrigerator to crash-cool the samples to about 5° C. for 48 hours. Solids observed at this point were analyzed by XRPD. The rest of the samples where no solids were observed were placed in a freezer to allow the samples to crash-cool further to about −20° C. After about 48 hours in the freezer, samples with solids were analyzed by XRPD. For samples where solids were still not observed, anti-solvent addition was carried out at 5° C., and the samples returned to the freezer. After 4 days in the freezer post-ASA, any solids present were analyzed by XRPD.
# Solvent Drop Grinding: 15-20 mg of Amorphous Compound 1 di(hydrogen sulfate) was added to 24×2 mL bead mill tubes. Into each tube, 5 μL of the appropriate solvent system was added at ambient. Two small stainless-steel beads were placed in each tube, and the samples were milled using the following program: (1) Speed=5000 rpm; (2) Cycle=10×90 s; (3) Pause=10 s; (4) Repeat=duplicate. For samples where dissolution was suspected during the milling, additional amorphous material was added, and the milling program repeated. When the milling program was completed, the residual solids were analyzed by XRPD.
# Anti-solvent Addition: 20-25 mg of Amorphous Compound 1 di(hydrogen sulfate) was added to 24×1.5 mL screw cap vials. Into each vial, 100 μL of the appropriate solvent system was added at 25° C. to form solutions. Where complete dissolution was not observed, an additional 400 μL of solvent was added and the samples were stirred at 50° C. to allow further dissolution. The mother liquors of these samples were needle-filtered into a new set of vials. To all the solutions, anti-solvent addition was carried out at 25° C. Where sufficient precipitation was observed post-ASA, these were isolated and analyzed by XRPD. Where thin slurries or clear solutions were observed post-ASA, these were cooled to 5° C. at 0.1° C./min and stirred at 5° C. for ca 18 h. Any solids present were isolated and analyzed by XRPD.
# Reactive Crystallization: 15-20 mg of Compound 1 was added to 18×1.5 mL screw cap vials. Into each vial, 100 μL of the appropriate solvent system was added at 40° C. 2.05 mole equiv. of H2SO4 was also added to the vials as solutions in 100 μL of the respective solvent systems. The samples were stirred at 40° C. for another approximately 30 mins, cooled to 5° C. at 0.1° C./min and left stirring at 5° C. for about 18 h. […]
smiles,measurement,setting,value
COc1cc(C(=O)O[C@@H]2CCCOc3cc(cc(OC)c3OC)C(=O)NCCCN3CCCN(CC2)CC3)cc(OC)c1OC [Compound 1 di(hydrogen sulfate)],XRPD (Damp) Evaporation,"1,4-Dioxane","2, PC"
same,XRPD (Damp) Temp cycling,"1,4-Dioxane","2, PC"
same,XRPD (Dried) Anti-solvent addition,"1,4-Dioxane",Am
same,XRPD (Dried) Evaporation,"1,4-Dioxane","2, PC"
same,XRPD (Dried) Solvent drop grinding,"1,4-Dioxane",Am
same,XRPD (Dried) Temp cycling,"1,4-Dioxane","2, PC"
same,XRPD (Damp) Anti-solvent addition,1-Propanol,"2, PC"
same,XRPD (Damp) Solvent drop grinding,1-Propanol,"2, PC"
same,XRPD (Dried) Anti-solvent addition,1-Propanol,"2, PC"
same,XRPD (Dried) Temp cycling,1-Propanol,Am
same,XRPD (Damp) Evaporation,2-Methyl THF,"2, PC"
same,XRPD (Dried) Anti-solvent addition,2-Methyl THF,Am
same,XRPD (Dried) Evaporation,2-Methyl THF,"2, PC"
same,XRPD (Dried) Solvent drop grinding,2-Methyl THF,Am
same,XRPD (Dried) Temp cycling,2-Methyl THF,Am
same,XRPD (Damp) Evaporation,2-Propanol,"2, PC"
same,XRPD (Dried) Anti-solvent addition,2-Propanol,Am
same,XRPD (Dried) Reactive cryst.,2-Propanol,Am
same,XRPD (Dried) Temp cycling,2-Propanol,Am
same,XRPD (Damp) Evaporation,2-propanol:water (50:50% v/v),"2, PC"
same,XRPD (Dried) Evaporation,2-propanol:water (50:50% v/v),"2, PC"
same,XRPD (Damp) Crash cooling,2-propanol:water (75:25% v/v),"2, PO"
same,XRPD (Damp) Reactive cryst.,2-propanol:water (75:25% v/v),"2, PC"
same,XRPD (Dried) Crash cooling,2-propanol:water (75:25% v/v),"2, PO"
same,XRPD (Damp) Evaporation,Acetone,"2, PC"
same,XRPD (Damp) Temp cycling,Acetone,"2, PC"
same,XRPD (Dried) Anti-solvent addition,Acetone,Am
same,XRPD (Dried) Evaporation,Acetone,"2, PC"
same,XRPD (Dried) Solvent drop grinding,Acetone,Am
same,XRPD (Dried) Temp cycling,Acetone,"2, PC"
same,XRPD (Damp) Evaporation,Acetonitrile,"6, PC"
same,XRPD (Dried) Evaporation,Acetonitrile,"6+, PC"
same,XRPD (Dried) Solvent drop grinding,DCM,Am
same,XRPD (Dried) Anti-solvent addition,DMF,Am
same,XRPD (Dried) Solvent drop grinding,DMF,Am
same,XRPD (Dried) Anti-solvent addition,DMSO,Am
same,XRPD (Dried) Solvent drop grinding,DMSO,Am
same,XRPD (Dried) Evaporation,Ethanol:water (90:10% v/v),"2, PC"
same,XRPD (Dried) Reactive cryst.,Ethyl Acetate,Am
same,XRPD (Dried) Solvent drop grinding,Ethyl Acetate,Am
same,XRPD (Dried) Temp cycling,Ethyl Acetate,Am
same,XRPD (Dried) Solvent drop grinding,Isopropyl Acetate,Am
same,XRPD (Dried) Temp cycling,Isopropyl Acetate,Am
same,XRPD (Damp) Temp cycling,MEK,"2, PC"
same,XRPD (Dried) Solvent drop grinding,MEK,Am
same,XRPD (Dried) Temp cycling,MEK,"2, PC"
same,XRPD (Damp) Solvent drop grinding,Methanol,"2, PC"
same,XRPD (Dried) Reactive cryst.,Methanol,Am
same,XRPD (Dried) Solvent drop grinding,Methanol,"2, PC"
same,XRPD (Dried) Temp cycling,Methanol,Am
same,XRPD (Dried) Reactive cryst.,MiBK,Am
same,XRPD (Dried) Solvent drop grinding,MiBK,Am
same,XRPD (Dried) Temp cycling,MiBK,Am
same,XRPD (Damp) Evaporation,THF,"2, PC"
same,XRPD (Dried) Evaporation,THF,"2, PC"
same,XRPD (Dried) Solvent drop grinding,THF,Am
same,XRPD (Dried) Solvent drop grinding,Toluene,Am
same,XRPD (Dried) Temp cycling,Toluene,Am
